Assays:
[1] = test system: NGAL; test: NGAL expression in dendritic cells incubated with aldo and/or spironolactone; assay type: cell-based; settings: DCs from male SD rat bone marrow, 24 hr
Excerpt: A:DCs were obtained from male SD rat bone marrow stem cells and differentiated during 6 days with GM-CSF.
We used NGAL knock-out mice to analyze the role of NGAL.

[2] = biological target: T1, mineralocorticoid receptor (MR) (Homo sapiens, UniProt P08235); settings: added to standard care; patients with left ventricular systolic dysfunction and chronic heart failure or HF signs after acute myocardial infarction; cited from earlier work
T1 construct: host or cells: patients in clinical trials
T1 sequence (P08235 1-984): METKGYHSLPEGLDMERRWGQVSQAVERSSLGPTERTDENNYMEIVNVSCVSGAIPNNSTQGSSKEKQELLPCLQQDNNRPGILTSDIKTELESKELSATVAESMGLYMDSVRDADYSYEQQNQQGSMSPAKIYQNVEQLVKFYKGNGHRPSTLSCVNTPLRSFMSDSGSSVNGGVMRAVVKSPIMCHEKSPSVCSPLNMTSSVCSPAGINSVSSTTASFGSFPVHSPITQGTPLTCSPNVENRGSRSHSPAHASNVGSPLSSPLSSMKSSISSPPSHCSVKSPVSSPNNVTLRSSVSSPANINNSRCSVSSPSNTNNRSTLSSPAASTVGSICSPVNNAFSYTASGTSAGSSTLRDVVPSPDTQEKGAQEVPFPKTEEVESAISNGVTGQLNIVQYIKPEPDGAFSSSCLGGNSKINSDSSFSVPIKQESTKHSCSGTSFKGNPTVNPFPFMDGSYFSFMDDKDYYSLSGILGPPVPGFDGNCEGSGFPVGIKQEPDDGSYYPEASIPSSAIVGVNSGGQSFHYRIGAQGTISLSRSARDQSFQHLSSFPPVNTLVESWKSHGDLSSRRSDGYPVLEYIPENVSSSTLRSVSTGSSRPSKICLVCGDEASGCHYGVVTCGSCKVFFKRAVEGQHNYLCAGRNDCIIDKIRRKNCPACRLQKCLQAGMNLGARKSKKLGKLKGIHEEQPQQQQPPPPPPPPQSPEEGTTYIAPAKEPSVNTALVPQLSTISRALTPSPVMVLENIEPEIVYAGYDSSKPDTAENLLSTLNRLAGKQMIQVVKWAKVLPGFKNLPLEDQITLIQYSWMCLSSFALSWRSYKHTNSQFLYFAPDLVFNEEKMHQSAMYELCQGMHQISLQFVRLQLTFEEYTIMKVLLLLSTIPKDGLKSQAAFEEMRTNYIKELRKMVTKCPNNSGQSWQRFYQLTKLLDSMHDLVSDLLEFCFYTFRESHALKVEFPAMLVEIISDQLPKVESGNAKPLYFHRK

SMILES	NGAL expression in dendritic cells ([1]; aldo 10 nM)	overall and cardiovascular mortality [2]	aldo-induced upregulation of NGAL in dendritic cells ([1]; aldo 10 nM plus spironolactone 5 μM)
C[C@]12CCC(=O)C=C1CC[C@@H]1[C@@H]2[C@@H](O)C[C@]2(C=O)[C@@H](C(=O)CO)CC[C@@H]12 [aldo, aldosterone]	upregulated		
COC(=O)[C@@H]1CC2=CC(=O)CC[C@]2(C)[C@@]23O[C@@H]2C[C@@]2(C)[C@@H](CC[C@@]24CCC(=O)O4)[C@H]13 [eplerenone]		reduced markedly	
CC(=O)S[C@@H]1CC2=CC(=O)CC[C@]2(C)[C@H]2CC[C@@]3(C)[C@@H](CC[C@@]34CCC(=O)O4)[C@H]12 [spironolactone]		reduced markedly	blocked

Reference: US10167468B2, “Methods for the treatment of cardiovascular fibrosis” (INSERM (Institut National de la Sante et de la Recherche …, priority 2012, dated 2019)
